What all share (test): growth of human tumour cells (NCI), 48 h
Assay [1] relates to OVCAR-4.
In assay [2] the test system is DU-145.
Assay [3] deals with TK-10.
In assay [4] the test system is SK-MEL-5.
Assay [5] concerns PC-3.
Assay [6] has as its system SW-620.
Assay [7] has as its system MOLT-4.
Assay [8] concerns SF-295.
Assay [9] concerns HCT-116.
Assay [10] has as its system SR.
For assay [11], the system named is CCRF-CEM.
Assay [12] relates to NCI-H226.
Assay [13] concerns SF-268.
Assay [14] deals with UACC-257.
For assay [15], the system named is KM12.
In assay [16] the test system is SF-539.

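Where inhibition never reached the appropriate level, the endpoint shown equals the highest concentration tested. Otherwise, values were interpolated linearly from a five-concentration, 48-hour dose response in 96-well plates. At the GI50, growth is halved.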 Activity calls are given as the source filed them. Cut-off read from the data, not from the text of the source: active = GI50 up to about 1.1 µM and inactive = higher.

Take `CO[C@H]1[C@@H](O)[C@@H](C)O[C@@H](O[C@H]2CC[C@@]3(C)[C@H](CC[C@@H]4[C@@H]3CC[C@]3(C)[C@@H](C5=CC(=O)OC5)CC[C@]43O)C2)[C@@H]1O` [ODOROSIDE H]: the GI50 in [1] was 0.00583 µM (active); in assay [2] it was 0.00377 µM (active); in [3], 0.00336 µM (active); in assay [4], 0.00509 µM (active); in assay [5], 0.00426 µM (active); in assay [6], < 0.0025 µM (active). For the same compound, the GI50 in assay [7] is < 0.0025 µM (active); in assay [8], 0.00516 µM (active); in [9], 0.00482 µM (active); in [10], 0.00304 µM (active); in assay [11] it was 0.00422 µM (active); in assay [12], 0.0488 µM (active). Further, the GI50 was 0.00422 µM (active) in assay [13], 0.0109 µM (active) in assay [14], 0.0112 µM (active) in assay [15] and 0.00468 µM (active) in assay [16].
Turning to `O/N=C(/CC(O)(C(F)(F)F)C(F)(F)F)c1ccccc1`, the GI50 in assay [1] is > 10 µM (inactive); in assay [2] it was > 10 µM (inactive); in assay [3] it was > 10 µM (inactive); in assay [4] it was 2.1 µM (inactive); in [5] it was > 10 µM (inactive); in assay [6], > 10 µM (inactive). Moreover, the GI50 in assay [7], in [8], in [9], in assay [10], in assay [11] and in assay [12] was > 10 µM (inactive) in each case. Besides, the GI50 in assay [13], in assay [14], in assay [15] and in assay [16] was > 10 µM (inactive) throughout.
As to `CN1CCN(Cn2nc(-c3ccccc3)n(/N=C/c3ccc(-c4ccc(Cl)cc4Cl)o3)c2=S)CC1`, the GI50 in assay [1] was 16.3 µM (inactive); in assay [2], 8.91 µM (inactive); in [3], 15.1 µM (inactive); in assay [4] it was 7.71 µM (inactive); in assay [5], 8.43 µM (inactive); in [6] it was 11.8 µM (inactive). The GI50 in [7] is 0.0713 µM (active); in assay [8] it was 11.4 µM (inactive); in assay [9], 3.66 µM (inactive); in assay [10], 1.51 µM (inactive); in assay [11], 4.17 µM (inactive); in assay [12], 20 µM (inactive). The GI50 was 5.83 µM (inactive) in assay [13], 18 µM (inactive) in assay [14], 9.73 µM (inactive) in assay [15] and 13.5 µM (inactive) in assay [16].
As for `CSc1c(CC(=O)Nc2ccc(Cl)cc2)n(Cc2ccccc2)c2ccccc12`, the GI50 in assay [1] is 11.7 µM (inactive); in [2], 38.5 µM (inactive); in assay [3], 16 µM (inactive); in [4], 29.9 µM (inactive); in assay [5] it was 11 µM (inactive); in [6], > 100 µM (inactive). The GI50 is 43.1 µM (inactive) in assay [7]; 62.7 µM (inactive) in assay [8]; 23.9 µM (inactive) in assay [9]; 23 µM (inactive) in assay [10]; 40.3 µM (inactive) in assay [11]; 20.8 µM (inactive) in assay [12]. Further, the GI50 in [13] was 12.9 µM (inactive); in [14], 24.8 µM (inactive); in [15], > 100 µM (inactive); in [16] it was 3 µM (inactive).
For the compound `COc1ccc2nc3c([N+](=O)[O-])ccc4c3c(c2c1)N=CN4CCN(C)C`, the GI50 is 9.02 µM (inactive) in assay [1]; 4.09 µM (inactive) in [2]; 6.34 µM (inactive) in assay [3]; 2.53 µM (inactive) in [4]; 4.65 µM (inactive) in assay [5]; 3.3 µM (inactive) in assay [6]. In addition, the GI50 in assay [7] is 2.04 µM (inactive); in assay [8] it was 5.57 µM (inactive); in assay [9], 2.44 µM (inactive); in assay [10], 0.168 µM (active); in [11], 0.764 µM (active); in assay [12], 4.34 µM (inactive). Also, the GI50 in [13] was 4.09 µM (inactive); in [14] it was 3.96 µM (inactive); in [15], 3.86 µM (inactive); in assay [16] it was 3.28 µM (inactive).
Turning to `CN1CC2=C(OC(N)=C(C#N)C2c2cccs2)/C(=C/c2cccs2)C1` (configuration not stated), the GI50 in [1] was 5.52 µM (inactive); in [2], 23.4 µM (inactive); in [3], > 51.2 µM (inactive); in assay [4] it was 3.41 µM (inactive); in [5], 5.31 µM (inactive); in assay [6], 42.8 µM (inactive). Moreover, the GI50 in assay [7] is 2.43 µM (inactive); in [8], 11.6 µM (inactive); in assay [9] it was 8.43 µM (inactive); in assay [10], 4.17 µM (inactive); in assay [11] it was 5.52 µM (inactive); in assay [12], > 74.1 µM (inactive). For the same compound, the GI50 is 13.5 µM (inactive) in [13], 9.53 µM (inactive) in assay [14], 9.12 µM (inactive) in assay [15] and 48.8 µM (inactive) in [16].
Take `C/C(=N\C1CCCCC1)c1ccccc1O`: the GI50 in assay [1], in assay [2], in assay [3], in assay [4], in assay [5] and in [6] was > 100 µM (inactive) each time. For the same compound, the GI50 in assay [7] is > 100 µM (inactive); in [8], > 100 µM (inactive); in [9], > 100 µM (inactive); in assay [10], > 100 µM (inactive); in assay [11], 54 µM (inactive); in assay [12] it was > 100 µM (inactive). The GI50 in assay [13], in assay [14], in [15] and in assay [16] was > 100 µM (inactive) in each case.
Turning to `COCc1nc2c(OC)c(-c3nc4ccc(N5CCN(C)CC5)cc4[nH]3)cc(OC)c2[nH]1`, the GI50 is 59.2 µM (inactive) in assay [1]; 31.3 µM (inactive) in assay [2]; 84.9 µM (inactive) in assay [3]; 22.2 µM (inactive) in [4]; 42.9 µM (inactive) in [5]; 40.6 µM (inactive) in [6]. The GI50 is 41.1 µM (inactive) in assay [7]; 21.6 µM (inactive) in assay [8]; 30.8 µM (inactive) in assay [9]; 19.7 µM (inactive) in assay [10]; 27.5 µM (inactive) in assay [11]; > 100 µM (inactive) in assay [12]. Further, the GI50 is > 100 µM (inactive) in assay [13], 17.7 µM (inactive) in assay [14], 28.1 µM (inactive) in assay [15] and 20 µM (inactive) in [16].
Take `CC1=Nc2ccccc2/C1=C\c1c(C)[nH]c2ccccc12`: the GI50 was 12.4 µM (inactive) in assay [1]; 15.8 µM (inactive) in assay [2]; 16.3 µM (inactive) in assay [3]; 14.1 µM (inactive) in assay [4]; 13.6 µM (inactive) in assay [5]; 11 µM (inactive) in [6]. Further, the GI50 was 3.4 µM (inactive) in [7]; 18.6 µM (inactive) in assay [8]; 11.4 µM (inactive) in [9]; 5.9 µM (inactive) in assay [10]; 5.04 µM (inactive) in assay [11]; 15.2 µM (inactive) in assay [12]. Moreover, the GI50 in assay [13] was 11.2 µM (inactive); in assay [14] it was 13.2 µM (inactive); in assay [15] it was 13.2 µM (inactive); in assay [16], 24.5 µM (inactive).
Consider `CN(C)c1ccc(-c2ccc(N(C)C)c3n[se]nc23)c2n[se]nc12`, for which the GI50 in [1], in assay [2], in [3], in [4], in assay [5] and in assay [6] was > 100 µM (inactive) in each case. The GI50 in assay [7], in [8], in assay [9], in [10], in assay [11] and in assay [12] was > 100 µM (inactive) in each case. Further, the GI50 in assay [13], in assay [14], in assay [15] and in assay [16] was > 100 µM (inactive) in each case.
With `c1ccc2cc(CN3CCC(C4CCN(Cc5ccc6ccccc6c5)CC4)CC3)ccc2c1`, the GI50 was 6.21 µM (inactive) in [1]; 11.8 µM (inactive) in assay [2]; 3.82 µM (inactive) in assay [3]; 2.06 µM (inactive) in assay [4]; 9.42 µM (inactive) in assay [5]; 2.74 µM (inactive) in assay [6]. The GI50 was 3.41 µM (inactive) in [7]; 1.9 µM (inactive) in assay [8]; 6.79 µM (inactive) in [9]; 3.24 µM (inactive) in [10]; 4.06 µM (inactive) in assay [11]; 11.4 µM (inactive) in assay [12]. Moreover, the GI50 in assay [13] was 8.53 µM (inactive); in assay [14], 1.98 µM (inactive); in assay [15], 2.97 µM (inactive); in assay [16], 1.8 µM (inactive).
Turning to `N#CCOc1ccc(/C=C/C(=O)c2ccc(Cl)cc2)cc1`, the GI50 in [1] is 34.9 µM (inactive); in assay [2], 66.4 µM (inactive); in assay [3], 28.5 µM (inactive); in [4], 20.9 µM (inactive); in assay [5], 43.2 µM (inactive); in assay [6] it was 22.1 µM (inactive). Also, the GI50 in assay [7] is 19.6 µM (inactive); in assay [8] it was 21.4 µM (inactive); in assay [9], 6.65 µM (inactive); in assay [10], 37.5 µM (inactive); in assay [11] it was 26.5 µM (inactive); in assay [12] it was > 100 µM (inactive). In addition, the GI50 was 33.9 µM (inactive) in assay [13], 32 µM (inactive) in assay [14], 22.4 µM (inactive) in assay [15] and 19.2 µM (inactive) in assay [16].

The values are drawn from ChEMBL document CHEMBL1201862, “PubChem BioAssay data set” (2004).
